The values below come from US20040049072A1, “RXR modulators with improved pharmacologic profile” (priority 1999, published 2004).

Entries after “also recorded” stand apart in the source; their conditions may differ. Read-outs that look alike come from different tables or passages of the source.

One data set has as its system Crl:CD-1 (ICR)BR mice. Put plainly: teratogenicity in pregnant Crl:CD-1 (ICR)BR mice. It counts as in vivo, mouse. The procedure:
Teratogenicity is commonly evaluated by examination of fetuses obtained by cesarean section from pregnant mice dosed daily with test compound between gestation days 6-18. We have conducted a blinded study using time-mated female Crl:CD-1® (ICR)BR mice to evaluate potential developmental toxicity (teratogenicity) following administration of L6 at either 30 or 200 mg/kg-day by daily oral gavage for the specified […] of gestation. Each test group consisted of 7-8 pregnant females and produced approx. 100 live fetuses per test group. […] The highest dose of L6 tested (200 mg/kg-day) is twice the dose required to produce maximum antidiabetic activity in db/db mice (100 mg/kg-day).

In another data set the test system is db/db mouse. Put plainly: db/db mouse study (rodent model of Type II diabetes). The conditions noted are these: for insulin sensitizing activity with thyroid axis suppression and triglyceride elevations: rodent models of Type II Diabetes; for inhibition in vivo at 30 mg/kg: Mus musculus, po, 168 h, read-out: db/db mouse Glu. (D7); for db/db mouse Trigs. (D3): plasma triglycerides as % of control values, day 3, 30 mg/kg/day.

For a further data set, the target named is T1, RXRα:RAR heterodimer (Homo sapiens, UniProt P19793).
T1 construct: expressed in transfected cells; host or cells: CV-1 cells
T1 sequence (P19793 1-462): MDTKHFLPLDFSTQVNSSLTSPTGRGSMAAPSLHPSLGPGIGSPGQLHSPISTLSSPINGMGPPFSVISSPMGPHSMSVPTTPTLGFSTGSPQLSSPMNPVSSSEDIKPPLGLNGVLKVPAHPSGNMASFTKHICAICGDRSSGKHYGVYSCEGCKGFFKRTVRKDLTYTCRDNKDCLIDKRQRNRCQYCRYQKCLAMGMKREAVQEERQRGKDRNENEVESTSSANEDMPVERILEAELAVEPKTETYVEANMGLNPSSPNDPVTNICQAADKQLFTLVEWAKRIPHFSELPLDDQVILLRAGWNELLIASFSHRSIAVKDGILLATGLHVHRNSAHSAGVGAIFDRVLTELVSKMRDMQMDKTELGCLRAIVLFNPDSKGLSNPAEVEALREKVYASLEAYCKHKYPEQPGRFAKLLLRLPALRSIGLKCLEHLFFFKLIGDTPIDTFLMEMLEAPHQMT
Put plainly: RXR:RAR heterodimer co-transfection assay in CV-1 cells. The format is cell-based. The conditions noted are these: CV-1, read-out: RXR:RAR CV-1 (%) Ag. The procedure:
(§1) For determination of agonist activity in the context of the RXR:RAR heterodimer or the RXR:PPARγ heterodimer, media containing compounds of the present invention in concentrations ranging from 10^−10 to 10^−5 M were added to the cells.
(§2) Compounds of the present invention were also tested for the ability to synergize with a PPARγ agonist in the context of an RXR heterodimer. […] Efficacy of the compounds of the present invention in the agonist and synergy assays was calculated as the maximum response obtained over the range of the dose response curve relative to the maximum response obtained by the reference agonist. Antagonist efficacy was determined as a function (%) of maximal inhibition.
However, when RAR is occupied, typical RXR agonists activate the heterodimer. […] To examine the effects of the compounds of the present invention on the transcriptional properties of the RXR:RAR heterodimer, a heterodimer cotransfection assay as described above was employed.

In the next data set the target is T2, RXRα (Homo sapiens, UniProt P19793).
T2 sequence (P19793 1-462): T1 sequence (P19793 1-462)
The data set can be described thus: RXRα binding (competition with tritiated LGD1069). The procedure: Non-specific binding was defined as that binding remaining in the presence of 500 nM of the appropriate unlabelled compound. At the end of the incubation period, bound ligand was separated from free. The amount of bound tritiated retinoid was determined by liquid scintillation counting of an aliquot (700 μL) of the supernatant fluid or the hydroxylapatite pellet.
After correcting for non-specific binding, IC50 values were determined. […] The IC50 value was determined graphically from a log-logit plot of the data. The Ki values were determined by application of the Cheng-Prussof equation to the IC50 values, the labeled ligand concentration and the Kd of the labeled ligand.

A further data set deals with T3, RXRα:PPARγ heterodimer (Homo sapiens, UniProt P19793).
T3 construct: expressed in transfected cells; host or cells: CV-1 cells
T3 sequence (P19793 1-462): T1 sequence (P19793 1-462)
T3 sequence (P37231 1-505 partner): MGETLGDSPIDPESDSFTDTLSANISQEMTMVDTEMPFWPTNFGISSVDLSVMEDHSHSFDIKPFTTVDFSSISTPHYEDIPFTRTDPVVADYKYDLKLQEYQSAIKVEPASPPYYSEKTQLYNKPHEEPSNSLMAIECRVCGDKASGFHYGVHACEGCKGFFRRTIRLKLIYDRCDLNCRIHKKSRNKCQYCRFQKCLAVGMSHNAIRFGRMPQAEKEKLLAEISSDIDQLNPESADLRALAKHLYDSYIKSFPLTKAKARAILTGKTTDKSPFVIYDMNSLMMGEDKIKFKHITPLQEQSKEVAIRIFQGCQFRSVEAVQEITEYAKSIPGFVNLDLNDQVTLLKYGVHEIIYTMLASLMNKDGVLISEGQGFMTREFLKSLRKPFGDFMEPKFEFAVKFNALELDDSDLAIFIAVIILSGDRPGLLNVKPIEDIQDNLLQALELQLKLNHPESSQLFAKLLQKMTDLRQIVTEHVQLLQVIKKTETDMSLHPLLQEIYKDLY
Put plainly: RXR:PPARγ heterodimer co-transfection assay in CV-1 cells. It counts as cell-based. The procedure: as §1, §2
To examine the effects of the compounds of the present invention on the transcriptional properties of the RXR:PPARγ, a heterodimer cotransfection assay as described above was employed.

In a further data set the target is T4, RXRα homodimer (RXR:RXR) (Homo sapiens, UniProt P19793).
T4 sequence (P19793 1-462): T1 sequence (P19793 1-462)
The data set can be described thus: RXR homodimer co-transfection assay in CV-1 cells. The conditions noted are these: CV-1, read-out: RXR:RAR CV-1 (%) Ag. It counts as cell-based. The source says:
In the co-transfection assay, cloned cDNA for one or more IRs (e.g., human RARα, RXRα, or PPARγ), alone or in combination (i.e. for heterodimer assays) under the control of a constitutive promoter (e.g., the SV 40, RSV or CMV promoter) is introduced by transfection (a procedure to introduce exogenous genes into cells) into a background cell substantially devoid of endogenous IRs. These introduced gene(s) direct the recipient cells to make the IR protein(s) of interest. A further gene is also introduced (co-transfected) into the same cells in conjunction with the IR gene(s). This further gene, comprising the cDNA for a reporter protein, such as firefly luciferase (LUC), controlled by an appropriate hormone responsive promoter containing a hormone response element (HRE). This reporter plasmid functions as a reporter for the transcriptional-modulating activity of the target IR(s). Thus, the reporter acts as a surrogate for the products (mRNA then protein) normally expressed by a gene under control of the target receptor(s) and their native hormone(s).
Exposing the transfected cells to an agonist ligand compound increases reporter activity in the transfected cells. This activity can be conveniently measured, e.g., by increasing luciferase production and enzymatic activity, which reflects compound-dependent, IR-mediated increases in reporter transcription. […] Increasing concentrations of an antagonist will decrease the reporter signal (e.g., luciferase production). The co-transfection assay is therefore useful to detect both agonists and antagonists of specific IRs. Furthermore, it determines not only whether a compound interacts with a particular IR, but whether this interaction mimics (agonizes) or blocks (antagonizes) the effects of native or synthetic regulatory molecules on target gene expression, as well as the specificity and strength of this interaction.
The receptor expression plasmid was cotransfected along with a reporter plasmid at 50 ng/well, the internal control plasmid pRS-β-Gal at 50 ng/well and filler DNA, pGEM, at 90 ng/well.
Six hours after transfection, media was removed and the cells were washed with phosphate-buffered saline (PBS). Media containing compounds of the present invention in concentrations ranging from 10^−10 to 10^−5 M were added to the cells. […] Retinoids were dissolved in dimethylsulfoxide for use in the transcriptional activation assays. Two to three replicates were used for each sample. Transfections and subsequent procedures were performed on a Biomek 1000 automated workstation.
After 40 hours, the cells were washed with PBS, lysed with a detergent-based buffer and assayed for LUC and β-Gal activities using a luminometer or spectrophotometer, respectively. For each replicate, the normalized response (NR) was calculated as: […]
The mean and standard error of the mean (SEM) of the NR were calculated. Data were plotted as the response of the compound compared to the reference compounds over the range of the dose-response curve. […] Antagonist activity was determined by testing the amount of LUC expression in the presence of the RXR agonists described above at the EC50 concentration for such known compounds. […] In addition, the efficacy of antagonists was determined as a function (%) of maximal inhibition.

Setting [1] is: Table 2, from IC50 by Cheng-Prussof equation, tritiated LGD1069, read-out: Bind RXRα Ki.
Setting [2] is: Table 2, maximal response in presence of 100 nM BRL49653 relative to BRL49653 alone.

Protocol for db/db mouse: Mice (obtained from Jackson Laboratory), ZDF rats (obtained from Genetic Models Inc.) and fa/fa rats (obtained from either Charles River, or Harlan) were maintained on 12-hour light/dark cycle. […] Compounds were administered at the specified doses by oral gavage on the morning of each day of any experiment. Blood samples were obtained 3 hours after dosing from fed animals under anesthesia and collected into heparinized capillary tubes from the tail vein.

On to `CCCCOc1c(\C(C)=C/C=C/C(C)=C/C(=O)O)cc(C(C)C)cc1C(C)C` [Compound L6], for which, in the data set on Crl:CD-1 (ICR)BR mice (L6 at 30 or 200 mg/kg-day compared to vehicle controls), the “Corpora lutea, implantation sites, live or dead fetuses, resorptions, fetal weight or sex, external and cranial visceral morphology” value is reported as “no effects were observed”. Moreover, in the data set on Crl:CD-1 (ICR)BR mice (daily oral gavage, gestation days 6-18, L6 30 or 200 mg/kg-day, LG100268 30 or 100 mg/kg-day), the teratogenicity in fetuses result is given as “no teratogenic effects were observed”. In the data set on db/db mouse (db/db mice), the “dose required to produce maximum antidiabetic activity in db/db mice” value was found to be 100 mg/kg-day. For the same compound, in the data set on db/db mouse, the “insulin sensitizing activity with thyroid axis suppression and triglyceride elevations” value (shortened to “insulin sensitizing activity”) was “maintain the desirable insulin sensitizing activity and eliminate or reduce both the suppression of the thyroid axis and triglyceride elevations; also recorded: maintain the desirable insulin sensitizing activity and minimize both the suppression of the thyroid axis and triglyceride elevations”.

Turning to `CCOc1c(\C(C)=C/C=C/C(C)=C/C(=O)O)cc(C(F)(F)C(F)(F)F)cc1C(C)C` [Compound L15], the Emax on RXRα:RAR heterodimer turned out to be 1%. Moreover, in the data set on db/db mouse, the inhibition in vivo at 30 mg/kg amounted to 80%; the “db/db mouse Trigs. (D3)” value turned out to be 156%; the “insulin sensitizing activity” value is “maintain the desirable insulin sensitizing activity and minimize both the suppression of the thyroid axis and triglyceride elevations”. Further, on RXRα (setting [1]), the Ki amounted to 6 nM. Further, the “PPARγ CV-1 (%) Synergy” value on RXRα:PPARγ heterodimer is 99%. For the same compound, the Emax at RXRα homodimer (RXR:RXR) is 44%.

For the compound `CCc1cc(-c2ccsc2/C=C/C(C)=C/C(=O)O)c(OCCCC(F)(F)F)c(C(C)(C)C)c1` [Compound L16], on RXRα:RAR heterodimer, the Emax was found to be 2%. In the data set on db/db mouse, the inhibition in vivo at 30 mg/kg is 37%; the “db/db mouse Trigs. (D3)” value amounted to 79%; the “insulin sensitizing activity” value was “maintain the desirable insulin sensitizing activity and minimize both the suppression of the thyroid axis and triglyceride elevations”. On RXRα, this compound came in with a Ki of 2 nM. Also, the “PPARγ CV-1 (%) Synergy” value on RXRα:PPARγ heterodimer (setting [2]) came to 64%. In addition, the Emax at RXRα homodimer (RXR:RXR) stood at 1%.

Take `CCc1cc(-c2ccsc2/C=C/C(C)=C/C(=O)O)c(OCCCF)c(C2CCCC2)c1` [Compound L17]: the Emax on RXRα:RAR heterodimer turned out to be 4%. Also, in the data set with db/db mouse, the inhibition in vivo at 30 mg/kg amounted to 29%; the “db/db mouse Trigs. (D3)” value turned out to be 75%; the “insulin sensitizing activity” value is “maintain the desirable insulin sensitizing activity and minimize both the suppression of the thyroid axis and triglyceride elevations”. Also, the Ki at RXRα was 8 nM. Besides, the “PPARγ CV-1 (%) Synergy” value on RXRα:PPARγ heterodimer (setting [2]) was found to be 88%. Further, the Emax at RXRα homodimer (RXR:RXR) was 3%.

In the case of `CCC(C)(C)c1cc(\C(C)=C/C=C/C(C)=C/C(=O)O)c(OCC(F)F)c(C(C)(C)CC)c1` [Compound L18], on RXRα:RAR heterodimer, the Emax was 1%. In addition, in the data set on db/db mouse, the inhibition in vivo at 30 mg/kg was found to be 45%; the “db/db mouse Trigs. (D3)” value is 134%; the “insulin sensitizing activity” value is “maintain the desirable insulin sensitizing activity and minimize both the suppression of the thyroid axis and triglyceride elevations”. Besides, the Ki at RXRα (setting [1]) was 29 nM. Also, on RXRα:PPARγ heterodimer (setting [2]), the “PPARγ CV-1 (%) Synergy” value worked out at 69%. In addition, the Emax at RXRα homodimer (RXR:RXR) was 2%.

In the case of `C/C(=C/C=C/C(C)=C/C(=O)O)c1cc(-c2ccccc2F)cc(C(C)C)c1OCC(F)F` [Compound L19], the Emax on RXRα:RAR heterodimer stood at 2%. Further, in the data set on db/db mouse, the inhibition in vivo at 30 mg/kg came to 68%; the “db/db mouse Trigs. (D3)” value worked out at 187%; the “insulin sensitizing activity” value is “maintain the desirable insulin sensitizing activity and minimize both the suppression of the thyroid axis and triglyceride elevations”. For the same compound, the Ki at RXRα (setting [1]) worked out at 1 nM. The “PPARγ CV-1 (%) Synergy” value on RXRα:PPARγ heterodimer worked out at 47%. Moreover, the Emax at RXRα homodimer (RXR:RXR) is 3%.

Regarding `C/C(=C/C=C/C(C)=C/C(=O)O)c1cc(C(C)(C)C)cc(C(C)(C)C)c1OCC(F)(F)F` [Compound L23], the Emax turned out to be 7% on RXRα:RAR heterodimer and 1% at RXRα homodimer (RXR:RXR). The inhibition in vivo at 30 mg/kg in the data set on db/db mouse is 53%. The Ki on RXRα (setting [1]) turned out to be 27 nM.
